Literature values in patent US20050261237A1, “Nucleoside phosphonate analogs” (priority 2003, published 2005).

Tests used:
HIV = settings: described in the literature; 61.1 with Base=G
[1] = target: PNP enzyme from Mycobacterium tuberculosis (MtPNP) (Mycobacterium tuberculosis, UniProt P9WP01); settings: Lewandowics A. et al., Biochemistry (2003) 42, 6057
PNP enzyme from Mycobacterium tuberculosis (MtPNP), sequence (P9WP01 whole entry): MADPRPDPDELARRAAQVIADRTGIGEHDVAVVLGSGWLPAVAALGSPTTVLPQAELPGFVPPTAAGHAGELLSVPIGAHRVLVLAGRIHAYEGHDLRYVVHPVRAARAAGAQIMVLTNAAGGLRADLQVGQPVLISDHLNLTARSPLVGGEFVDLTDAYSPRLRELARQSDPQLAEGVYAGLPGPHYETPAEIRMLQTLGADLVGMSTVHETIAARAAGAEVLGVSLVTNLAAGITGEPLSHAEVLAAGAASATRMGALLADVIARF

SMILES | anti-HIV activity (HIV) | inhibition of the PNP enzyme from Mycobacterium tuberculosis (MtPNP) [1]
Nc1nc(=O)c2ncn([C@@H]3C[C@H](CO)[C@H]3CO)c2[nH]1 [lubocavir] | 30 µM | –
Nc1nc2c(CN3C[C@H](CO)[C@@H](O)C3)c[nH]c2c(=O)[nH]1 [DADMe-ImmG] | – | highly potent
